Laboratory results as given in BindingDB's records for patent US11147816 (Genuv, 2021).

How the values were obtained:
[1] = biological target: Dual specificity mitogen-activated protein kinase kinase 1 (Homo sapiens, UniProt Q02750); assay: MEK 1/2 inhibition
[2] = biological target: Dual specificity mitogen-activated protein kinase kinase 2 (Homo sapiens, UniProt P36507); assay: MEK 1/2 inhibition
Sequence of Dual specificity mitogen-activated protein kinase kinase 2 (P36507 whole entry): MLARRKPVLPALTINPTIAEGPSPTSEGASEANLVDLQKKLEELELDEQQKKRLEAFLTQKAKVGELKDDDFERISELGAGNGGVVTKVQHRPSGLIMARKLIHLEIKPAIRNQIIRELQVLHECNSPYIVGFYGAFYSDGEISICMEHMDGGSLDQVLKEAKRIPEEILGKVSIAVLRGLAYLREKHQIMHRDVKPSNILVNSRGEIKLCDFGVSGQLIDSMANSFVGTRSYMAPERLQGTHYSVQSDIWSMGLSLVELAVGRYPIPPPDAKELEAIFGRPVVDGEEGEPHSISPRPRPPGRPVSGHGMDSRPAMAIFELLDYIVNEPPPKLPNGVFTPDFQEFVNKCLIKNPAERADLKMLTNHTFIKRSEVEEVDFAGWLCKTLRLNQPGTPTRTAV

Sequence of Dual specificity mitogen-activated protein kinase kinase 1 (Q02750 whole entry): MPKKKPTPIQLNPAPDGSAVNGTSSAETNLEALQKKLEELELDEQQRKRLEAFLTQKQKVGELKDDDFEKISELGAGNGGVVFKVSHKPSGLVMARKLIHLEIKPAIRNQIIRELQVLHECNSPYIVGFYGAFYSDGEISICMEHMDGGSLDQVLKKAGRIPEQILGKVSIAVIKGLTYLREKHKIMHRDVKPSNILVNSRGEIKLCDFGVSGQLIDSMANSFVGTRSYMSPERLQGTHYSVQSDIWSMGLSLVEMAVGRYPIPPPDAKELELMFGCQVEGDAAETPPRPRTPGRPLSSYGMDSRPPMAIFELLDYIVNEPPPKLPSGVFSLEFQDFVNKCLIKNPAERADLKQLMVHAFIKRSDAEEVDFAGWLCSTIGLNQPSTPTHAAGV

| IC50 [1] [nM] | SMILES | IC50 [2] [nM] |
| --- | --- | --- |
| 1.4 | O=C(NOC[C@@H](O)CO)c1cc(Br)c(F)c(F)c1Nc1ccc(I)cc1F [US11147816, PD318088] |  |
|  | COc1cc(F)c(F)c(Nc2ccc(I)cc2F)c1NS(=O)(=O)C1(C[C@H](O)CO)CC1 [US11147816, Refametinib (RDEA119, Bay] | 47 |
